Measured values reported in patent US11840686B2, “Modulation of prekallikrein (PKK) expression” (Ionis Pharmaceuticals, Inc., priority 2013, dated 2023).
Strand notation (5' to 3'): a small letter for the sugar, then the base; units joined by * are phosphorothioate-linked, units joined directly phosphodiester-linked; [ ] holds rarer units or linkages, { } end groups; capitals alone tell only the bases. e = 2'-O-(2-methoxyethyl) (MOE); k = constrained ethyl (cEt); [5mC] = 5-methylcytosine; d = 2'-deoxy (DNA)

Experiments:
human PKK mRNA [1] = assay: Antisense inhibition of human PKK mRNA in HepaRG cells, 1,000 nM, MOE/deoxy/cEt oligonucleotides (Example 3); format: cell-based; settings: Table 21 experiment; HepaRG cells, electroporation with 1,000 nM antisense oligonucleotide, approx. 24 hours; PKK mRNA by RT-PCR (RTS3454), relative to untreated control cells
Procedure: Additional antisense oligonucleotides were designed targeting a PKK nucleic acid and were tested for their effects on PKK mRNA in vitro.
The chimeric antisense oligonucleotides in the tables below were designed as deoxy, MOE and cEt gapmers. The gapmers are 16 nucleosides in length wherein the nucleoside have either a MOE sugar modification, a cEt sugar modification, or a deoxy modification. The ‘Chemistry’ column describes the sugar modifications of each oligonucleotide. ‘k’ indicates an cEt sugar modification; the number indicates the number of deoxynucleosides; otherwise, indicates a deoxynucleoside; and ‘e’ indicates a 2′-O-methoxyethyl modification. The internucleoside linkages throughout each gapmer are phosphorothioate linkages. All cytosine residues throughout each oligonucleotide are 5-methylcytosines. “Start site” indicates the 5′-most nucleoside to which the gapmer is targeted in the human gene sequence. “Stop site” indicates the 3′-most nucleoside to which the gapmer is targeted in the human gene sequence.
Cultured HepaRG™ cells at a density of 20,000 cells per well were transfected using electroporation with 1,000 nM antisense oligonucleotide. After a treatment period of approximately 24 hours, RNA was isolated from the cells and PKK mRNA levels were measured by quantitative real-time PCR. Human primer probe set RTS3454 was used to measure mRNA levels. ISIS 531231 was also included in this assay. PKK mRNA levels were adjusted according to total RNA content, as measured by RIBOGREEN®. The antisense oligonucleotides were tested in a series of experiments that had similar culture conditions. Results are presented as percent inhibition of PKK, relative to untreated control cells.

human PKK mRNA [2] = assay: Antisense inhibition of human PKK mRNA in HepaRG cells, 5,000 nM (Example 2); format: cell-based; settings: human PKK mRNA, HepaRG cells, 5,000 nM antisense oligonucleotide, Table 18
In short: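 HepaRG cells (20,000/well) electroporated with 5,000 nM MOE gapmer (phosphorothioate backbone, 5-methylcytosines) and harvested after ~24 h. PKK mRNA measured by qRT-PCR with primer probe set RTS3454, normalized to RIBOGREEN total RNA; percent inhibition versus untreated cells.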

Substance | % inhibition (human PKK mRNA [1]) | % inhibition (human PKK mRNA [2])
547751 (eT*eG*kA*dA*d[5mC]*dG*dG*dT*d[5mC]*dT*dT*d[5mC]*dA*kA*kG*e[5mC]; antisense) [compound 547751] | 0% | –
547753 (eA*eT*kG*dA*dA*d[5mC]*dG*dG*dT*d[5mC]*dT*dT*d[5mC]*kA*kA*eG; antisense) [compound 547753] | 3% | –
548731 (DNA e[5mC]*eT*eG*eT*dA*d[5mC]*dT*dA*dG*dT*dT*dT*d[5mC]*d[5mC]*eT*eA*eT; antisense) [compound 548731] | – | 49%
548732 (DNA eA*e[5mC]*eT*eG*dT*dA*d[5mC]*dT*dA*dG*dT*dT*dT*d[5mC]*e[5mC]*eT*eA; antisense) [compound 548732] | – | 36%
548733 (DNA e[5mC]*eA*e[5mC]*eT*dG*dT*dA*d[5mC]*dT*dA*dG*dT*dT*dT*e[5mC]*e[5mC]*eT; antisense) [compound 548733] | – | 84%
548734 (DNA eT*e[5mC]*eA*e[5mC]*dT*dG*dT*dA*d[5mC]*dT*dA*dG*dT*dT*eT*e[5mC]*e[5mC]; antisense) [compound 548734] | – | 51%
548735 (DNA eA*eT*e[5mC]*eA*d[5mC]*dT*dG*dT*dA*d[5mC]*dT*dA*dG*dT*eT*eT*e[5mC]; antisense) [compound 548735] | – | 48%
548736 (DNA eT*eA*eT*e[5mC]*dA*d[5mC]*dT*dG*dT*dA*d[5mC]*dT*dA*dG*eT*eT*eT; antisense) [compound 548736] | – | 21%
548737 (DNA eA*e[5mC]*eT*eA*dG*dT*dT*dT*d[5mC]*d[5mC]*dT*dA*dT*eA*eA*e[5mC]*eT; antisense) [compound 548737] | – | 11%
548738 (DNA eT*eA*e[5mC]*eT*dA*dG*dT*dT*dT*d[5mC]*d[5mC]*dT*dA*eT*eA*eA*e[5mC]; antisense) [compound 548738] | – | 0%
548739 (DNA eG*eT*eA*e[5mC]*dT*dA*dG*dT*dT*dT*d[5mC]*d[5mC]*dT*eA*eT*eA*eA; antisense) [compound 548739] | – | 0%
548740 (DNA eT*eG*eT*eA*d[5mC]*dT*dA*dG*dT*dT*dT*d[5mC]*d[5mC]*eT*eA*eT*eA; antisense) [compound 548740] | – | 0%
548741 (DNA e[5mC]*eT*eG*eT*dA*d[5mC]*dT*dA*dG*dT*dT*dT*d[5mC]*e[5mC]*eT*eA*eT; antisense) [compound 548741] | – | 69%
548742 (DNA eA*e[5mC]*eT*eG*dT*dA*d[5mC]*dT*dA*dG*dT*dT*dT*e[5mC]*e[5mC]*eT*eA; antisense) [compound 548742] | – | 50%
548745 (DNA eA*eT*e[5mC]*eA*d[5mC]*dT*dG*dT*dA*d[5mC]*dT*dA*dG*eT*eT*eT*e[5mC]; antisense) [compound 548745] | – | 71%
548746 (antisense eT*eA*eT*e[5mC]*dA*d[5mC]*dT*dG*dT*dA*d[5mC]*dT*dA*eG*eT*eT*eT) [compound 548746] | – | 40%
548747 (antisense eT*eA*e[5mC]*eT*dA*dG*dT*dT*dT*d[5mC]*d[5mC]*dT*dA*dT*eA*eA*e[5mC]*eT) [compound 548747] | – | 2%
548748 (antisense eG*eT*eA*e[5mC]*dT*dA*dG*dT*dT*dT*d[5mC]*d[5mC]*dT*dA*eT*eA*eA*e[5mC]) [compound 548748] | – | 0%
548749 (antisense eT*eG*eT*eA*d[5mC]*dT*dA*dG*dT*dT*dT*d[5mC]*d[5mC]*dT*eA*eT*eA*eA) [compound 548749] | – | 0%
548750 (antisense e[5mC]*eT*eG*eT*dA*d[5mC]*dT*dA*dG*dT*dT*dT*d[5mC]*d[5mC]*eT*eA*eT*eA) [compound 548750] | – | 62%
548751 (antisense eA*e[5mC]*eT*eG*dT*dA*d[5mC]*dT*dA*dG*dT*dT*dT*d[5mC]*e[5mC]*eT*eA*eT) [compound 548751] | – | 53%
548754 (antisense eA*eT*e[5mC]*eA*d[5mC]*dT*dG*dT*dA*d[5mC]*dT*dA*dG*dT*eT*eT*e[5mC]*e[5mC]) [compound 548754] | – | 77%
548755 (antisense eT*eA*eT*e[5mC]*dA*d[5mC]*dT*dG*dT*dA*d[5mC]*dT*dA*dG*eT*eT*eT*e[5mC]) [compound 548755] | – | 20%
548759 (antisense eA*eA*e[5mC]*eA*dG*dT*dA*dT*d[5mC]*dA*d[5mC]*dT*dG*eT*eA*e[5mC]*eT) [compound 548759] | – | 68%

Substance | % inhibition (human PKK mRNA [1]) | % inhibition (human PKK mRNA [2])
548760 (antisense eT*eA*eA*e[5mC]*dA*dG*dT*dA*dT*d[5mC]*dA*d[5mC]*dT*eG*eT*eA*e[5mC]) [compound 548760] | – | 53%
548761 (antisense e[5mC]*eT*eA*eA*d[5mC]*dA*dG*dT*dA*dT*d[5mC]*dA*d[5mC]*eT*eG*eT*eA) [compound 548761] | – | 49%
548762 (antisense eT*e[5mC]*eT*eA*dA*d[5mC]*dA*dG*dT*dA*dT*d[5mC]*dA*e[5mC]*eT*eG*eT) [compound 548762] | – | 16%
548763 (antisense e[5mC]*eT*e[5mC]*eT*dA*dA*d[5mC]*dA*dG*dT*dA*dT*d[5mC]*eA*e[5mC]*eT*eG) [compound 548763] | – | 44%
548764 (antisense eT*eA*eT*e[5mC]*dA*d[5mC]*dT*dG*dT*d[5mC]*d[5mC]*dT*dA*eT*eA*eA*e[5mC]) [compound 548764] | – | 31%
548765 (antisense eA*eT*eA*eT*d[5mC]*dA*d[5mC]*dT*dG*dT*d[5mC]*d[5mC]*dT*eA*eT*eA*eA) [compound 548765] | – | 0%
548766 (antisense eT*eA*eT*eA*dT*d[5mC]*dA*d[5mC]*dT*dG*dT*d[5mC]*d[5mC]*eT*eA*eT*eA) [compound 548766] | – | 36%
548767 (antisense eT*eA*eT*e[5mC]*dA*d[5mC]*dT*dG*dT*d[5mC]*d[5mC]*dT*dA*eT*eA*eT*e[5mC]) [compound 548767] | – | 59%
548768 (antisense eG*eT*eA*eT*d[5mC]*dA*d[5mC]*dT*dG*dT*d[5mC]*d[5mC]*dT*eA*eT*eA*eT) [compound 548768] | – | 56%
548769 (antisense eA*eG*eT*eA*dT*d[5mC]*dA*d[5mC]*dT*dG*dT*d[5mC]*d[5mC]*eT*eA*eT*eA) [compound 548769] | – | 64%
548771 (antisense eA*eT*eA*eA*d[5mC]*dA*dG*dT*dA*dT*d[5mC]*dA*d[5mC]*eT*eG*eT*e[5mC]) [compound 548771] | – | 62%
548772 (antisense eT*eA*eT*eA*dA*d[5mC]*dA*dG*dT*dA*dT*d[5mC]*dA*e[5mC]*eT*eG*eT) [compound 548772] | – | 0%
548773 (antisense e[5mC]*eT*eA*eT*dA*dA*d[5mC]*dA*dG*dT*dA*dT*d[5mC]*eA*e[5mC]*eT*eG) [compound 548773] | – | 0%
548774 (antisense e[5mC]*e[5mC]*eT*eA*dT*dA*dA*d[5mC]*dT*dA*dT*dA*dA*e[5mC]*eA*eG*eT) [compound 548774] | – | 0%
548775 (antisense eT*e[5mC]*e[5mC]*eT*dA*dT*dA*dA*d[5mC]*dT*dA*dT*dA*eA*e[5mC]*eA*eG) [compound 548775] | – | 0%
548776 (antisense e[5mC]*e[5mC]*eT*eA*dT*dA*dA*d[5mC]*dT*dA*dT*dA*dA*e[5mC]*eA*eA*eT) [compound 548776] | – | 0%
548777 (antisense eG*eT*eA*eA*d[5mC]*dA*dG*dT*dA*dT*d[5mC]*dA*d[5mC]*eT*eG*eT*eA) [compound 548777] | – | 41%
548778 (antisense eA*eT*eA*eA*d[5mC]*dA*dG*dT*dA*dT*d[5mC]*dA*d[5mC]*eT*eG*eT*eA) [compound 548778] | – | 20%
548779 (antisense eG*eT*e[5mC]*e[5mC]*dT*dA*dT*dA*dA*d[5mC]*dT*dA*dT*eA*eA*e[5mC]*eA) [compound 548779] | – | 0%
548780 (antisense eT*eG*eT*e[5mC]*d[5mC]*dT*dA*dT*dA*dA*d[5mC]*dT*dA*eT*eA*eA*e[5mC]) [compound 548780] | – | 22%
548781 (antisense eA*e[5mC]*e[5mC]*eT*dA*dT*dA*dA*d[5mC]*dT*dA*dT*dA*eA*e[5mC]*eA*eG) [compound 548781] | – | 0%
548782 (antisense eT*eA*e[5mC]*e[5mC]*dT*dA*dT*dA*dA*d[5mC]*dT*dA*dT*eA*eA*e[5mC]*eA) [compound 548782] | – | 0%
548783 (antisense eA*e[5mC]*e[5mC]*eT*dA*dT*dA*dA*d[5mC]*dT*dA*dT*dA*eA*e[5mC]*eA*eA) [compound 548783] | – | 0%
